Reference: patent publication US10414759B2, “Phenylthiazoles and uses thereof” (Purdue Research Foundation, priority 2017, dated 2019)
Values after ≈ are worked out from the molar mass of the structure shown.

Experiments:
MRSA (USA300) = test: Time-kill assay; type: cell-based, Staphylococcus aureus; settings: for bactericidal / bacteriostatic behaviour in time-kill assay, in words: MRSA
Procedure: Aliquots (100 μL) were taken from each sample after 2, 4, 6, 8, 10, 12, and 24 hours, serially diluted in phosphate-buffered saline, and transferred to Trypticase soy agar (TSA) (Becton, Dickinson and Company, Sparks, Md., USA) plates. Plates were incubated at 37° C. for at least 16 hours before counting viable CFU/mL to determine the time required to reduce the bacterial cell count by 3-log10.

VRS10 (VRSA) = test: MIC/MBC S. aureus strains (Table 8); type: cell-based; settings: Staphylococcus aureus, Table 8, VRS10 (VRSA); for MBC: read-out: MBC; for MIC: read-out: MIC
Procedure: (§1) The minimum inhibitory concentration (MIC) of tested compounds and control antibiotics were determined using the broth microdilution method in accordance with the recommendations contained in the Clinical and Laboratory Standards Institute guidelines, against methicillin-sensitive (ATCC 6538 and NRS107), methicillin-resistant (MRSA), and vancomycin-resistant (VRSA) Staphylococcus aureus, Staphylococcus epidermidis, Enterococcus faecalis, E. faecium, Listeria monocytogenes, and Streptococcus pneumoniae clinical isolates. A bacterial solution equivalent to 0.5 McFarland standard was prepared and diluted in cation-adjusted Mueller-Hinton broth (CAMHB) to achieve a bacterial concentration of about 5×10^5 CFU/mL and seeded in 96-well plates. Enterococcus faecium was diluted in brain heart infusion broth. Enterococcus faecalis, Streptococcus pneumonia and Listeria monocytogenes were diluted in tryptone soya broth (TSB). Compounds and control drugs were added in the first row of 96-well plates and serially diluted (to achieve a concentration gradient ranging from 128 to 1 μg/mL). Plates were then incubated aerobically at 37° C. for at least 18 hours. The minimum bactericidal concentration (MBC) of the active compounds was tested by plating 5 μL from wells with no growth onto Tryptic soy agar (TSA) plates.

VRS12 (VRSA) = test: MIC/MBC S. aureus strains (Table 8); type: cell-based; settings: Staphylococcus aureus, Table 8, VRS12 (VRSA); for MBC: read-out: MBC; for MIC: read-out: MIC
Procedure: as §1

MRSA NRS386 = test: MIC/MBC S. aureus strains (Table 8); type: cell-based; settings: Staphylococcus aureus
Procedure: (§2) A bacterial solution equivalent to 0.5 McFarland standard was prepared and diluted in cation-adjusted Mueller-Hinton broth (CAMHB) to achieve a bacterial concentration of about 5×10^5 CFU/mL and seeded in 96-well plates. Enterococcus faecium was diluted in brain heart infusion broth. Enterococcus faecalis, Streptococcus pneumonia and Listeria monocytogenes were diluted in tryptone soya broth (TSB).

MRSA NRS119 = test: MIC/MBC S. aureus strains (Table 8); type: cell-based; settings: Staphylococcus aureus
Procedure: as §2

MRSA NRS384 (USA300) = test: MIC/MBC S. aureus strains (Table 8); type: cell-based; settings: Staphylococcus aureus
Procedure: as §2

MRSA NRS123 (USA400) = test: MIC/MBC S. aureus strains (Table 8); type: cell-based; settings: Staphylococcus aureus
Procedure: as §2

MRSA NRS385 = test: MIC/MBC S. aureus strains (Table 8); type: cell-based; settings: Staphylococcus aureus
Procedure: as §2

S. aureus ATCC 6538 = test: MIC/MBC S. aureus strains (Table 8); type: cell-based; settings: Staphylococcus aureus, ATCC6538
Procedure: as §2

[1] = tested on: Listeria monocytogenes ATCC 19111; test: MIC/MBC Gram-positive pathogens (Table 9); type: cell-based; settings: for MBC / MIC: ATCC19111, Table 9, Listeria monocytogenes ATCC 19111
Procedure: as §2

[2] = tested on: Enterococcus faecalis ATCC 51299 (VRE); test: MIC/MBC Gram-positive pathogens (Table 9); type: cell-based; settings: Table 9; Enterococcus faecalis ATCC 51299 (VRE)
Procedure: as §2

[3] = tested on: Methicillin-resistant Staphylococcus epidermidis NRS101; test: MIC/MBC Gram-positive pathogens (Table 9); type: cell-based
Procedure: as §2

S. aureus NRS107 = test: MIC/MBC S. aureus strains (Table 8); type: cell-based, Staphylococcus aureus; settings: Staphylococcus aureus; Table 8; S. aureus NRS107
Procedure: as §2

[4] = tested on: human colorectal (Caco-2) cell; test: In vitro cytotoxicity against Caco-2 cells (MTS); type: cell-based; settings: at 32 μg/mL
Procedure: Tested compounds were assayed (at concentrations of 16, 32, and 64 μg/mL) against a human colorectal (Caco-2) cell to determine the potential toxic effect to mammalian cells in vitro. Briefly, cells were cultured in Dulbecco's Modified Eagle Medium (DMEM) supplemented with 20% fetal bovine serum (FBS), non-essential amino acids (1×), and penicillin-streptomycin at 37° C. with CO2 (5%). Control cells received DMSO alone at a concentration equal to that in drug-treated cell samples. The cells were incubated with the compounds (in triplicate) in a 96-well plate at 37° C. with CO2 (5%) for two hours. The assay reagent MTS 3-(4,5-dimethylthiazol-2-yl)-5-(3-carboxymethoxyphenyl)-2-(4-sulfophenyl)-2H-tetrazolium) (Promega, Madison, Wis., USA) was subsequently added and the plate was incubated for four hours. Absorbance readings (at OD490) were taken using a kinetic microplate reader (Molecular Devices, Sunnyvale, Calif., USA). The quantity of viable cells after treatment with each compound was expressed as a percentage of the viability of DMSO-treated control cells (average of triplicate wells±standard deviation). The toxicity data was analyzed via a two-way ANOVA, with post hoc Sidak's multiple comparisons test (P<0.05), utilizing GraphPad Prism 6.0 (GraphPad Software, La Jolla, Calif.).

[5] = tested on: Enterococcus faecium ATCC 700221 (VRE); test: MIC/MBC Gram-positive pathogens (Table 9); type: cell-based; settings: Table 9; Enterococcus faecium ATCC 700221 (VRE); read-out: MIC
Procedure: as §1

MRSA (2658 RCMB) = test: MIC against MRSA (2658 RCMB), broth dilution; type: cell-based, Staphylococcus aureus; settings: Staphylococcus aureus; Table 7; initial screening, MRSA (2658 RCMB); read-out: minimum inhibitory concentration (MIC)
Procedure: Bacteria were cultured in cation-adjusted Mueller Hinton broth in a 96-well plate. Compounds, using triplicate samples, were added to the plate and serially diluted. […] Plates were visually inspected and the MIC was categorized as the concentration at which no visible growth of bacteria was observed. The average of triplicate MIC determinations is reported.
as §2

[6] = tested on: Cephalosporin-resistant Streptococcus pneumoniae ATCC 51916; test: MIC/MBC Gram-positive pathogens (Table 9); type: cell-based; settings: ATCC51916
Procedure: as §2

[7] = tested on: Methicillin-resistant Streptococcus pneumoniae ATCC 700677; test: MIC/MBC Gram-positive pathogens (Table 9); type: cell-based; settings: ATCC700677
Procedure: as §2

Row | Structure (SMILES) | bactericidal / bacteriostatic behaviour in time-kill assay, in words (MRSA (USA300); 3.0×MIC) | MBC (VRS10 (VRSA)) | MIC (VRS10 (VRSA)) | MBC (VRS12 (VRSA)) | MIC (VRS12 (VRSA)) | MBC (MRSA NRS386) | MIC (MRSA NRS386) | MBC (MRSA NRS119) | MIC (MRSA NRS119) | MBC (MRSA NRS384 (USA300)) | MIC (MRSA NRS384 (USA300)) | MBC (MRSA NRS123 (USA400)) | MIC (MRSA NRS123 (USA400)) | MBC (MRSA NRS385) | MIC (MRSA NRS385) | MBC (S. aureus ATCC 6538) | MIC (S. aureus ATCC 6538) | MBC [1] | MIC [1] | MIC [2] | also measured
1 | Cc1nc(-c2ccc(C(C)(C)C)cc2)sc1-c1ccnc(NC(=N)N(C)C)n1 [Compound 58, 3-(4-(2-(4-(tert-Butyl)phenyl)-4-methylthiazol-5-yl)pyrimidin-2-yl)-1,1-dimethylguanidine] | rapid bactericidal activity | 8 µg/mL (≈ 20.3 µM) | 8 µg/mL (≈ 20.3 µM) | 8 µg/mL (≈ 20.3 µM) | 8 µg/mL (≈ 20.3 µM) | 8 µg/mL (≈ 20.3 µM) | 8 µg/mL (≈ 20.3 µM) | 8 µg/mL (≈ 20.3 µM) | 8 µg/mL (≈ 20.3 µM) | 8 µg/mL (≈ 20.3 µM) | 8 µg/mL (≈ 20.3 µM) | 8 µg/mL (≈ 20.3 µM) | 8 µg/mL (≈ 20.3 µM) | 8 µg/mL (≈ 20.3 µM) | 8 µg/mL (≈ 20.3 µM) | 8 µg/mL (≈ 20.3 µM) | 8 µg/mL (≈ 20.3 µM) | 8 µg/mL (≈ 20.3 µM) | 8 µg/mL (≈ 20.3 µM) | 8 µg/mL (≈ 20.3 µM) | time to completely eradicate the MRSA inoculum (MRSA (USA300); t-butyl series, 3.0×MIC): within two to four hours; MBC [3]: 8 µg/mL (≈ 20.3 µM); MIC [3]: 8 µg/mL (≈ 20.3 µM); MBC (S. aureus NRS107): 8 µg/mL (≈ 20.3 µM); MIC (S. aureus NRS107): 8 µg/mL (≈ 20.3 µM); tolerability to human colorectal cells, in words [4]: intolerable; MIC [5]: 8 µg/mL (≈ 20.3 µM); MIC (MRSA (2658 RCMB)): 1.17 µg/mL (≈ 2.97 µM)
2 | Cc1nc(-c2ccc(C(C)(C)C)cc2)sc1-c1ccnc(NC(=N)c2cccnc2)n1 [Compound 63, N-(4-(2-(4-(tert-Butyl)phenyl)-4-methylthiazol-5-yl)pyrimidin-2-yl) nicotinimidamide] | bacteriostatic activity | 4 µg/mL (≈ 9.33 µM) | 4 µg/mL (≈ 9.33 µM) | 4 µg/mL (≈ 9.33 µM) | 4 µg/mL (≈ 9.33 µM) | 4 µg/mL (≈ 9.33 µM) | 4 µg/mL (≈ 9.33 µM) | 4 µg/mL (≈ 9.33 µM) | 4 µg/mL (≈ 9.33 µM) | 4 µg/mL (≈ 9.33 µM) | 4 µg/mL (≈ 9.33 µM) | 4 µg/mL (≈ 9.33 µM) | 4 µg/mL (≈ 9.33 µM) | 4 µg/mL (≈ 9.33 µM) | 4 µg/mL (≈ 9.33 µM) | 4 µg/mL (≈ 9.33 µM) | 4 µg/mL (≈ 9.33 µM) | 64 µg/mL (≈ 149 µM) | 4 µg/mL (≈ 9.33 µM) | 8 µg/mL (≈ 18.7 µM) | decrease in MRSA CFU (MRSA (USA300); over 24 hours): 2.3 log; MBC values relative to MIC values against L. monocytogenes ([1]; text b122): more than three-fold higher; MBC [6]: 8 µg/mL (≈ 18.7 µM); MIC [6]: 4 µg/mL (≈ 9.33 µM); MBC [7]: 8 µg/mL (≈ 18.7 µM); MIC [7]: 4 µg/mL (≈ 9.33 µM); MBC [3]: > 64 µg/mL; MIC [3]: 64 µg/mL (≈ 149 µM); MBC (S. aureus NRS107): 4 µg/mL (≈ 9.33 µM); MIC (S. aureus NRS107): 4 µg/mL (≈ 9.33 µM); tolerability to human colorectal cells, in words [4]: highly tolerable; MIC [5]: 8 µg/mL (≈ 18.7 µM); MIC (MRSA (2658 RCMB)): 0.78 µg/mL (≈ 1.82 µM)
